The target in data set [1] is Acetylcholinesterase (Electrophorus electricus) (UniProt O42275). In words: Inhibition of Electrophorus electricus AChE at 10 uM pre-incubated for 5 mins before acetylthiocholine iodide substrate addition and measured after 2 mins.
Data set [2] has as its target Cholinesterase (Equus caballus) (UniProt P81908). Description: Inhibition of equine serum BChE at 10 uM pre-incubated for 5 mins before butyrylthiocholine iodide substrate addition and measured after 2 mins.
The next data set has as its target Acetylcholinesterase (Electrophorus electricus, UniProt O42275). Description: Inhibition of Electrophorus electricus AChE pre-incubated for 5 mins before acetylthiocholine iodide substrate addition and measured after 2 mins.
Data set [3] addresses T1, Cholinesterase (Equus caballus, UniProt P81908). In words: Inhibition of equine serum BChE pre-incubated for 5 mins before butyrylthiocholine iodide substrate addition and measured after 2 mins.
In data set [4] the target is Cholinesterase (Homo sapiens, UniProt P06276). Description: Inhibition of human BChE pre-incubated for 5 mins before butyrylthiocholine iodide substrate addition and measured after 2 mins.
The target of data set [5] is T1, Cholinesterase. Description: Noncompetitive inhibition of equine serum BChE pre-incubated for 5 mins before butyrylthiocholine iodide substrate addition and measured after 2 mins by Lineweaver-Burk plot analysis.
Data set [6] addresses Cholinesterase (Equus caballus) (UniProt P81908). In words: Noncompetitive inhibition of equine serum BChE assessed as reduction in enzymatic velocity pre-incubated for 5 mins before butyrylthiocholine iodide substrate addition and measured after 2 mins by Lineweaver-Burk plot analysis.
Data set [7] concerns PC-12. In words: Toxicity in rat PC12 cells assessed as reduction in cell viability at 2.5 to 50 uM incubated for 24 hrs by MTT assay. Format: cell-based. As to conditions: pc-12, 24 h. In general terms: Formazan colour is commonly taken as a measure of viable cells.
Data set [8] deals with SH-SY5Y. In words: Toxicity in human SH-SY5Y cells assessed as reduction in cell viability at 2.5 to 50 uM incubated for 24 hrs by MTT assay. Format: cell-based.
Data set [9] concerns PC-12. In words: Toxicity in rat PC12 cells assessed as reduction in cell viability at 100 uM incubated for 24 hrs by MTT assay relative to control. The settings on record: pc-12, 24 h. Format: cell-based.
In data set [10] the test system is SH-SY5Y. In words: Toxicity in human SH-SY5Y cells assessed as reduction in cell viability at 100 uM incubated for 24 hrs by MTT assay relative to control. Type of data set: cell-based.
A further data set has as its system L02. In words: Toxicity in human L02 cells assessed as reduction in cell viability at 2.5 to 100 uM incubated for 24 hrs by MTT assay. Format: cell-based. As to conditions: l02, 24 h.
The next data set has as its system HepG2. In words: Toxicity in human HepG2 cells assessed as toxic dose for reduction in cell viability incubated for 24 hrs by MTT assay. Type of data set: cell-based. As to conditions: hepg2, 24 h.
The nature of data set [11]: Toxicity in ICR mouse assessed as induction of animal death at 1 mg/kg, ig. Format: organism-based. As to conditions: in vivo, po.
Data set [12] is described as follows: Toxicity in ICR mouse assessed as induction of abnormal behaviors at 1 mg/kg, ig. Type of data set: organism-based. The settings on record: in vivo, po.
Data set [13] in a line: Toxicity in ICR mouse assessed as effect on body weight at 1 mg/kg, ig. Type of data set: organism-based. The settings on record: in vivo, po.
Data set [14] in a line: Hepatotoxicity in ICR mouse assessed as induction of pericentral necrosis at 30 mg/kg, ig measured after 8 to 36 hrs post dose by immunohistochemical staining assay. Format: toxicity, organism-based. The settings on record: in vivo, po.
Data set [15] is described as follows: Hepatotoxicity in ICR mouse assessed as induction of fatty degeneration of hepatocytes of surrounding intermediate and periportal zones at 30 mg/kg, ig measured after 8 to 36 hrs post dose by immunohistochemical staining assay. Type of data set: toxicity, organism-based. As to conditions: in vivo, po.
Data set [16] is described as follows: Effective permeability by PAMPA-BBB penetration assay. Format: ADME. The settings on record: read-out: Peff.
The test system of data set [17] is SH-SY5Y. In words: Neuroprotection against Abeta(1-42)-induced cytotoxicity in human SH-SY5Y cells assessed as increase in cell viability incubated for 1 hr before Abeta(1-42) challenge and measured after 24 hrs by MTT assay. Type of data set: functional, cell-based.
Data set [18] relates to Mus musculus. Description: Improvement in cognition in ICR mouse model of scopolamine-induced cognition-impairment assessed as improvement in escape latency at 15 to 30 mg/kg, po dosed 30 mins before scopolamine challenge for 10 days by Morris water maze test. Type of data set: functional, organism-based.
Data set [19] can be described thus: Toxicity in ICR mouse model of scopolamine-induced cognition-impairment assessed as induction of death at 15 to 30 mg/kg, po dosed 30 mins before scopolamine challenge for 10 days. Type of data set: organism-based. As to conditions: in vivo.
Data set [20] can be described thus: Toxicity in ICR mouse model of scopolamine-induced cognition-impairment assessed as induction of behavioral abnormities at 15 to 30 mg/kg, po dosed 30 mins before scopolamine challenge for 10 days. Format: organism-based. As to conditions: in vivo.
Data set [21] relates to Mus musculus. Description: Improvement in cognition in ICR mouse model of scopolamine-induced cognition-impairment assessed as improvement in trajectories to platform at 15 to 30 mg/kg, po dosed 30 mins before scopolamine challenge for 10 days by Morris water maze test. Type of data set: functional, organism-based.
In data set [22] the test system is Mus musculus. In words: Improvement in cognition in ICR mouse model of Abeta(1-42)-induced cognition-impairment assessed as escape latency time at 15 mg/kg, po dosed from days 3 to 14 by Morris water maze test (reference value: 48.9 secs). Format: functional.
The subject of data set [23] is Mus musculus. In words: Improvement in cognition in ICR mouse model of Abeta(1-42)-induced cognition-impairment assessed as improvement in trajectories to platform at 15 mg/kg, po dosed from days 3 to 14 by Morris water maze test. Type of data set: functional, organism-based.
Data set [24] has as its system Mus musculus. Description: Improvement in cognition in ICR mouse model of Abeta(1-42)-induced cognition-impairment assessed as spontaneous alternation performance level at 15 mg/kg, po dosed from days 3 to 14 and measured on day 15 by Y maze test (reference value: 34.43%). Format: functional.
A short description of data set [25]: Toxicity in ICR mouse model of Abeta(1-42)-induced cognition-impairment assessed as effect on body weight at 15 mg/kg, po dosed from days 3 to 14. Format: organism-based. As to conditions: in vivo.
For data set [26], the system named is Mus musculus. Description: Reduction in the Abeta(1-42) peptide level in ICR mouse model of Abeta(1-42)-induced cognition-impairment at 15 mg/kg, po dosed from days 3 to 14 by ELISA relative to control. Format: functional. More on the design: scale not given: the % may be the effect or the level left.
Data set [27] can be described thus: Half life in human liver microsomes at 1 uM in presence of NADPH by LC-MS/MS analysis. Format: ADME, Microsome.
Data set [28] in a line: Intrinsic clearance in human liver microsomes at 1 uM in presence of NADPH by LC-MS/MS analysis. As to conditions: read-out: CLH. Format: ADME, Microsome. Background: Liver microsomes are vesicles of endoplasmic reticulum, rich in cytochrome P450 enzymes.
Data set [29] can be described thus: Selectivity index, ratio of inhibition of Electrophorus electricus AChE pre-incubated for 5 mins before acetylthiocholine iodide substrate addition and measured after 2 mins to IC50 for inhibition of equine serum BChE pre-incubated for 5 mins before butyrylthiocholine iodide substrate addition and measured after 2 mins.

Activity calls are given as the source filed them. The rule behind the calls is not given here. Bounds are passed on as bounds.

T1 sequence (P81908 whole entry): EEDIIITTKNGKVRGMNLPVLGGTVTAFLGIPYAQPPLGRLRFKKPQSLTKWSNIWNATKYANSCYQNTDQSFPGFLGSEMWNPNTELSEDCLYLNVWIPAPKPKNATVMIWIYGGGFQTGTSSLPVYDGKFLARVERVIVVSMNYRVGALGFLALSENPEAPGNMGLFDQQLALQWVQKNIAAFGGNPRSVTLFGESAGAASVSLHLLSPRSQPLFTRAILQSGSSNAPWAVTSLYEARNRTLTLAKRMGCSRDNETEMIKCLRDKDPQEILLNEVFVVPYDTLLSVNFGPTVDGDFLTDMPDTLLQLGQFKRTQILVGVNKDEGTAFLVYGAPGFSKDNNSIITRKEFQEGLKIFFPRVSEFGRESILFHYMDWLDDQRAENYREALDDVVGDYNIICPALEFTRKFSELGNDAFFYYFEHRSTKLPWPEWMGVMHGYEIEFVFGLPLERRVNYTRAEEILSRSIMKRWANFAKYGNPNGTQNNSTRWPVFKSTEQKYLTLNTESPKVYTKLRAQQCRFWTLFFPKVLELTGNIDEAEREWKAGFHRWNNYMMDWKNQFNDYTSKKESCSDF
Sequence of Cholinesterase (Equus caballus) (P81908 whole entry): as above
Sequence of Acetylcholinesterase (O42275 whole entry): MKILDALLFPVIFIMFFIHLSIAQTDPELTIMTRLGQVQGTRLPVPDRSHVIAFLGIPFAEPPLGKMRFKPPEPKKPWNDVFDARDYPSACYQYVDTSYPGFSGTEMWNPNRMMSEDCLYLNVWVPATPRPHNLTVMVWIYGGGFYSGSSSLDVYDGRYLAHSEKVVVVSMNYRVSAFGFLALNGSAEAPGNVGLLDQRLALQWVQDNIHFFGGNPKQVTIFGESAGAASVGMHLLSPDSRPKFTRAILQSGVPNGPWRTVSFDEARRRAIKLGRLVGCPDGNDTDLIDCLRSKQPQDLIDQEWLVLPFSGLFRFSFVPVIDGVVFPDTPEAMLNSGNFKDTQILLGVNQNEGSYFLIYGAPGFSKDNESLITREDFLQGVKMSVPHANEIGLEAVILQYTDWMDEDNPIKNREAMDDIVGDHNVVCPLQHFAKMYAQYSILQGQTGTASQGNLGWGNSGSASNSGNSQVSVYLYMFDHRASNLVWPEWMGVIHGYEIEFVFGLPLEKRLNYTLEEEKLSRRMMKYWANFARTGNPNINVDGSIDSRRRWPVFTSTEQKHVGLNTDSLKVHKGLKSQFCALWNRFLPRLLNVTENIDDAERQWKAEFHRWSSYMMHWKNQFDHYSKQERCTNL
Sequence of Acetylcholinesterase (Electrophorus electricus) (O42275 24-633 limits assumed): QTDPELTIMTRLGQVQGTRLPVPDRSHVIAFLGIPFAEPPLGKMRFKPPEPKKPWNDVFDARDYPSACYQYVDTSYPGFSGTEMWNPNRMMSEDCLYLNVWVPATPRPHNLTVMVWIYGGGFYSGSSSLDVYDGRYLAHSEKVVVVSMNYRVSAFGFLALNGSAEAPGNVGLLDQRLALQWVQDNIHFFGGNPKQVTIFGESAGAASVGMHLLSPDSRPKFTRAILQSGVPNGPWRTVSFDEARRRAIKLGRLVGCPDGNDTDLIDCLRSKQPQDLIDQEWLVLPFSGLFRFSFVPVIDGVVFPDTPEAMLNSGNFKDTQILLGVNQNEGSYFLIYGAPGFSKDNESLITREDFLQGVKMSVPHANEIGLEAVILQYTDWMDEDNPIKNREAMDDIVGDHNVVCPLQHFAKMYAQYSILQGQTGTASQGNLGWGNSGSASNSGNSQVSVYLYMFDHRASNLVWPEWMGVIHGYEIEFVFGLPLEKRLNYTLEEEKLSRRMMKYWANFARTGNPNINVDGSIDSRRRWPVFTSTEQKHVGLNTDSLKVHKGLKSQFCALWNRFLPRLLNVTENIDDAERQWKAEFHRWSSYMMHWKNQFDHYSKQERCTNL
Sequence of Cholinesterase (Homo sapiens, UniProt P06276) (P06276 whole entry): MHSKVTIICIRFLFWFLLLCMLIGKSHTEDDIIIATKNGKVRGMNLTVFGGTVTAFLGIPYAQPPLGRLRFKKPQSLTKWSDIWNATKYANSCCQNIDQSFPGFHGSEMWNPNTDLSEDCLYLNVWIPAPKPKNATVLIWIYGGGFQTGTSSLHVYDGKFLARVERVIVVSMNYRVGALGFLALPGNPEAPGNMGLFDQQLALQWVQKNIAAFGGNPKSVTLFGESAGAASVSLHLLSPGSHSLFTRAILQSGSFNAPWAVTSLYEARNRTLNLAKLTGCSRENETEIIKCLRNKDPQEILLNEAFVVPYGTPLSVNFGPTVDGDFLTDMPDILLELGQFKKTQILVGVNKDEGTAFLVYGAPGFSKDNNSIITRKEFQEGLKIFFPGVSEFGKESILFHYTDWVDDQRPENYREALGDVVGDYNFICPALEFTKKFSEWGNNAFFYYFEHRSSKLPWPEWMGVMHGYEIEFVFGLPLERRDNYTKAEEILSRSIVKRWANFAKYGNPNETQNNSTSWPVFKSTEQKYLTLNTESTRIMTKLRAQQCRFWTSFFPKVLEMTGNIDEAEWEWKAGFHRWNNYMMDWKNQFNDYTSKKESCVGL

With `COc1cc2c(cc1NC(=O)C(=O)c1c(-c3ccccc3)[nH]c3ccccc13)oc1ccccc12`, the values for the inhibition in data set [1] and in data set [2] were -4.57% and 0.73%, respectively.
Consider `Cc1ccc(OCc2nc(CN(CC(C)C)C(=O)c3ccc4c(c3)OCO4)cs2)cc1`, for which the inhibition – broadly, the relative decrease from the control value, in per cent – in data set [1] was -6.37%; in [2], 54%. Further, the IC50 – broadly, the point on the concentration scale where inhibition reaches its midpoint – at Acetylcholinesterase came to 11 µM; against Cholinesterase [3], 17.7 µM.
For the molecule `Cc1ccc(-c2nc3ccccc3o2)cc1NCc1cc(Cc2ccccc2)ccc1O`, the results for the inhibition in data set [1] and in data set [2] were 6.25% and 8.49%, respectively.
Consider `Cc1ccc2cc(NC(=O)Cn3c(-c4nonc4N)nc4ccccc43)ccc2n1`, for which the inhibition in data set [1] is 15.3%; in [2] it was 96.5%; in [6], “Dose-dependent effect”. Moreover, the values for the IC50 against Acetylcholinesterase, against Cholinesterase [3] and on Cholinesterase [4] were more than 100 µM, 0.18 µM and 320 nM, respectively. Besides, the affinity on Cholinesterase [5] corresponds to a Ki of 232 nM. Further, the Activity entry with PC-12 [7] was “Non-Toxic”; in the data set on SH-SY5Y [8] it was “Non-Toxic”; in the data set with PC-12 [9], 50%; in the data set on SH-SY5Y [10], 50%; with L02, “Non-Toxic”; with HepG2 it was more than 20 µM. The Activity entry in [11] was “Non-Toxic”; in [12] it was “Non-Toxic”; in data set [13], “Non-Toxic”; in data set [14], “Non-Toxic”; in data set [15] it was “Non-Toxic”; with SH-SY5Y [17], “Dose-dependent effect”. For the same molecule, the Activity entry in the data set with Mus musculus [18] is “Dose-dependent effect”; in [19], “Non-Toxic”; in data set [20] it was “Non-Toxic”; with Mus musculus [21], “Dose-dependent effect”; in the data set with Mus musculus [24] it was 63.44%; in data set [25] it was “Non-Toxic”. In the data set on Mus musculus [26], this molecule yielded an Activity of 40.56%. The Papp in data set [16] was determined as 7.84 ×10⁻⁶ cm/s. Also, the Time in the data set on Mus musculus [22] was found to be 8.83 s. The result in the data set with Mus musculus [23] was Active. In data set [27], the half-life (in general, how long it takes for the measured level to halve) at 1 µM amounted to 41.9 min. In addition, the CLint scaled at 1 µM in data set [28] is 41.5 mL/min/kg. Besides, in data set [29], the Ratio IC50 was more than 500.
Take `COc1ccc(-c2noc(CN(C(=O)c3ccc4c(c3)OCO4)C3CCCCC3)n2)cc1`: the inhibition is -3.2% in [1] and 4.33% in data set [2].
Take `Clc1cccc(Cl)c1N=C1NCCN1` [CLONIDINE]: in data set [16], the Papp amounted to 8.8 ×10⁻⁶ cm/s.
The same measure, in the same setting: the same measure for `CC(=O)[C@H]1CC[C@H]2[C@@H]3CCC4=CC(=O)CC[C@]4(C)[C@H]3CC[C@]12C` [PROGESTERONE]: 15.5 ×10⁻⁶ cm/s; for `CN1C(C(=O)Nc2ccccn2)=C(O)c2ccccc2S1(=O)=O` [PIROXICAM]: 1.69 ×10⁻⁶ cm/s.
In the case of `COc1cc2c(cc1OC)C(=O)C(CC1CCN(Cc3ccccc3)CC1)C2` (stereo not drawn) [DONEPEZIL], in the data set with Mus musculus [22], the Time came out at 15.3 s. Moreover, the result in the data set on Mus musculus [23] was Active. In addition, the Activity with Mus musculus [24] is reported as 65.23%; with Mus musculus [26], 24.08%.
Take `CCc1noc(-c2cnc3nc(C)ccc3c2Nc2ccc3c(c2)OCCO3)n1`: the results for the inhibition in data set [1] and in data set [2] were 50.6% and 1.63%, respectively. On Acetylcholinesterase, this molecule displayed an IC50 of 1.56 µM.
Regarding `CCCN(Cc1csc(COc2ccc(C)cc2)n1)C(=O)c1ccc2c(c1)OCO2`, the inhibition is -0.26% in [1] and 54.8% in data set [2]. The IC50 at Cholinesterase [3] is 14.3 µM.
The like results for `COc1ccc(-c2cccc(-n3cncc3C(=O)N3Cc4ccccc4C3)c2)cc1OC` were, in that order, 6.29%, 53.4% and 17.3 µM.
In the case of `C[C@]12CC[C@@H]3c4ccc(O)cc4CC[C@H]3[C@@H]1CC[C@@H]2O` [ESTRADIOL], in data set [16], the Papp was determined as 20.5 ×10⁻⁶ cm/s.
Turning to `O=C(c1ccc(F)cc1)C1CCN(CCn2c(=O)[nH]c3ccccc3c2=O)CC1` [KETANSERIN], the half-life at 1 µM in [27] was determined as 31.4 min. Besides, in [28], the CLint scaled at 1 µM amounted to 55.3 mL/min/kg.
Consider `NCCc1ccc(O)c(O)c1` [DOPAMINE], for which, in data set [16], the Papp worked out at 3.3 ×10⁻⁶ cm/s.
The same measure, in the same setting: the same measure for `CN(C)CCCN1c2ccccc2Sc2ccc(Cl)cc21` [CHLORPROMAZINE]: 12.4 ×10⁻⁶ cm/s.
With `CN(CCc1noc(-c2cc3ccccc3[nH]2)n1)C(=O)c1ccc(N(C)C)cc1`, the inhibition in data set [1] came to 39.4%; in data set [2], 35.4%.
`C[C@]12CCC(=O)C=C1CC[C@@H]1[C@@H]2C(=O)C[C@]2(C)C(=O)CC[C@@H]12` [ADRENOTERONE]: in data set [16], the Papp is 6.05 ×10⁻⁶ cm/s.
For `COc1ccc(C2=C(Nc3ccc4oc5ccccc5c4c3)c3ccccc3C2=O)cc1`, the inhibition turned out to be 42.6% in [1] and 4.03% in [2].
For `COCCN(Cc1csc(COc2ccc(C)cc2)n1)C(=O)c1ccc(OC)cc1`, in that order: 5.79% and 7.17%.
The like results for `CN(CCc1noc(-c2cc3ccccc3[nH]2)n1)C(=O)c1ccc(C(C)(C)C)cc1` were, in that order, 51.6% and 20.3%.
As for `O=C(c1ccc(C(F)(F)F)cc1)N(CCc1nc(-c2ccc(C(F)(F)F)cc2)no1)Cc1ccco1`, in data set [1], the inhibition is -0.61%.
